Laboratory results: US8084610B2, “Compositions and methods for detecting and treating tumors containing acidic areas” (priority 2006, dated 2011)

Assays:
tumors = details: tumor-bearing mice; reduction of about 0.3 pH units in the tumors; cited from earlier work
[1] = Titration assay of sodium salts with 5 M HCl (pKa / effective pKa)
Experimental: Typically new structures that may be suitable as advanced pH-switch components are first assessed for their pKa value in normal saline. This entails preparing the sodium salt form of the structure and dissolving it at a concentration of 20 milliMolar in 15 ml of 0.15 Molar NaCl (deareated to remove CO2). […] A plot of pH versus volume of added HCl affords the effective pKa value. It is also desirable to carry out this same titration in methanol/water (1:1 by vol) in order to get an estimate of the pKa value independent of insolubility effects.
The compound in FIG. 12a was prepared by reacting camphoric anhydride with dimethylamine. The compound in FIG. 12b was prepared by reacting camphoric anhydride with ethylamine. The sodium salts of compounds shown in FIG. 12a (designed to form an internal acid-specific H-bond) and 12b (designed to form non-acid-specific H-bonds) were titrated in aqueous solution.
The two compounds in FIG. 15 were prepared by reacting the respective anhydrides with dimethylamine, and then the sodium salts titrated in methanol/water, 1:1 by volume—in order to preclude insolubility effects impacting the titration curve.
The methyl ester of isonipocotic acid was alkylated with bromopropane and then the resultant tertiary amine oxidized to the N-oxide with meta-Chlorobenzoylperoxide. Finally, the ester was cleaved with aqueous sodium hydroxide to give structure iii in FIG. 16b. This product in its sodium salt form was titrated in water.

Structure (SMILES): O=C(O)CCCc1ccc(N(CCCl)CCCl)cc1 [Chlorambucil]
- improvement in tumor growth delay (tumors): 1.7 fold

Structure (SMILES): CN(C)C(=O)C=CC(=O)O [FIG. 14b]
- pKa value (mid-point of the transition between salt and acid) ([1]; sodium salt titrated with HCl in water / aqueous solution): below 3.0

Structure (SMILES): CCC[N+]1([O-])CCC(C(=O)O)CC1 (stereo not shown) [structure iii in FIG. 16b, N-oxide of N-propylisonipocotic acid]
- first derivative of titration plot, minimum attributed to N-oxide moiety (pH) ([1]; sodium salt titrated in water): ~4.0
- first derivative of titration plot, other minimum (pH), attributed to internal low-barrier H-bond ([1]; sodium salt titrated in water): ~5.6
